Data: patent US11229633B2, “Arimoclomol formulation” (Orphazyme A/S, priority 2014, dated 2022)

Experiments:
human OAT1 = biological target: T1, human OAT1 (Homo sapiens, UniProt Q4U2R8); experiment: Uptake transporter substrate feasibility assay, OAT1; format: in vitro ADME; design: key to Substrate: NIO: No interaction observed
T1 construct: expressed in transfected cells; host or cells: CHO (protocol UPT-CHO-OAT1-Tenofovir; control: parental CHO-K1)
T1 sequence (Q4U2R8 1-563): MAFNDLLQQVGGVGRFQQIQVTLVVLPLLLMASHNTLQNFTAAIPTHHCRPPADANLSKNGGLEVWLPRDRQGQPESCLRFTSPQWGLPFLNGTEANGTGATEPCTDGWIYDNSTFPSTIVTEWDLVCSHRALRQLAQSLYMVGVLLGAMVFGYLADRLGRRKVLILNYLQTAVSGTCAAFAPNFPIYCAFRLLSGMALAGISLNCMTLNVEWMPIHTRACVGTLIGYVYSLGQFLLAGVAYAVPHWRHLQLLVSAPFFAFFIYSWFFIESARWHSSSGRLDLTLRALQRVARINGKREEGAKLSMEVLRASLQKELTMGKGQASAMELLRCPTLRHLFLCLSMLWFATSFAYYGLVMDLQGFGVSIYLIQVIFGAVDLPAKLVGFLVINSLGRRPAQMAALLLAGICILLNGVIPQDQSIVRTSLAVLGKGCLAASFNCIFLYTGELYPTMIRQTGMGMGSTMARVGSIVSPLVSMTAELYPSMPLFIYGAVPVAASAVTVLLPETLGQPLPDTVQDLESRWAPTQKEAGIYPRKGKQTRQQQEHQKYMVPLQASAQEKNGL
Experimental: Uptake experiments were performed using CHO, MDCKII, or HEK293 cells stably expressing the respective uptake transporters.
Cells were cultured at 37±1° C. in an atmosphere of 95:5 air:CO2 as described in Table 4 and were plated onto standard 24-well tissue culture plates at 2×10^5 cells/well. The uptake of the TA was determined using cells overexpressing the respective uptake transporter and control cells, at two incubation time points (2 and 20 min) and at two concentrations (1 and 10 μM) of TA to determine whether or not the TA was actively taken up into the cells.
Before the experiment, the medium was removed and the cells were washed twice with 300 μl of HK buffer (pH 7.4) (prepared from Sigma chemicals). Cellular uptake of TA into the cells was measured by adding 300 μl of HK buffer containing TA and incubating them at 37±1° C. Reactions were quenched by removing the HK buffer containing the TA and the cells were washed twice with 300 μl of HK buffer. Cells were lysed by adding 300 μl of MeOH:H2O (2:1) and incubated for 20 minutes at 4±1° C. The amount of TA in the cell lysate was determined by LC-MS/MS. The amount of protein in each well was quantified using the BCA kit for protein determination (Sigma-Aldrich, St Louis, Mo., USA). Uptake of the probe substrate in control cells provided background activity values for all data points. Incubation without reference inhibitor (solvent only) provided 100% activity values. A reference inhibitor served as positive control for inhibition.
The fold accumulation value was defined as the ratio of uptake of TA or probe substrate into transfected and control cells:
[formula] UPTTRP: accumulated amount of TA or probe substrate in transfected cells normalized by protein content [pmol/mg protein] UPTCTL: accumulated amount of TA or probe substrate in control cells normalized by protein content [pmol/mg protein]
If the fold accumulation is >2 and can be inhibited by a known inhibitor of the transporter, the TA can be considered to be a substrate of the respective transporter.

[1] = Kinetic solubility assessment in the assay buffers; format: physicochemical; settings: aqueous buffer, kinetic from dmso stock, 37° C.
Experimental: The aqueous solubility of the TA was determined by spectrophotometric measurements in combination with optical microscopy evaluation (5 and 10× magnification). […] The timeframe of the solubility assessment covered the incubation time of the corresponding in vitro experiment.
A stock solution and dilution series (5-step, 2-fold dilution series) of TA were prepared in water. Stock solutions were mixed with the appropriate assay buffers in a 96-wells plate and incubated for 10 minutes at 37° C. before the solutions were evaluated at 500 nm. […] Therefore, to be considered soluble at a given concentration, the background corrected absorbance of the TA solution must be less than 0.030 absorbance units (ΔA=Asolution−Ablank <0.030). The background corrected absorbance value for each solution was determined.

[2] = Physical properties of the drug substance; format: physicochemical
[3] = in vivo; cited from earlier work

For `[O-][n+]1cccc(C(Cl)=NOCC(O)CN2CCCCC2)c1` (stereo not drawn) [Arimoclomol, N-[2-hydroxy-3-(1-piperidinyl)-propoxy]-pyridine-1-oxide-3-carboximidoyl chloride], the “Substrate of the transporter (in words)” value (human OAT1) was “not a substrate”, the Fold accumulation (human OAT1; 1 μM, 2 min) was 0.77 and the Fold accumulation (human OAT1; 1 μM, 20 min) was 0.75. It also gave a Fold accumulation (human OAT1; 10 μM, 2 min) of 0.56, a Fold accumulation (human OAT1; 10 μM, 20 min) of 0.73 and a Fold accumulation (human OAT1; 1 and 10 μM, 2 and 20 min) of under 2. For the same compound, the Substrate (human OAT1; Table 2) was “NIO”, the solubility at 10 min [1] was at least 300 µM and the “Carr's Index” value ([2]; drug substance) was 44.4%. The bulk density ([2]; drug substance) was 0.214 g/cm3, the tapped density ([2]; following 250 taps) was 0.386 g/cm3 and the plasma half-life [3] was 2 to 4 h.
